Patent publication US20040171086A1, “Selective modulation of TLR-mediated biological activity” (3M Innovative Properties Company, priority 2003, published 2004)

Experiments:
TLR6 = molecular target: T1, TLR6 (Homo sapiens, UniProt Q9Y2C9); assay: IFN-α1-luciferase reporter assay in genetically modified Namalwa cells, TLR6; type: cell-based; settings: 10 μM IRM, 18 hours
T1 construct: expressed in transfected cells; host or cells: Namalwa (ATCC CRL-1432), pCI-TLR6 vector, G418 selected
T1 sequence (Q9Y2C9 32-796): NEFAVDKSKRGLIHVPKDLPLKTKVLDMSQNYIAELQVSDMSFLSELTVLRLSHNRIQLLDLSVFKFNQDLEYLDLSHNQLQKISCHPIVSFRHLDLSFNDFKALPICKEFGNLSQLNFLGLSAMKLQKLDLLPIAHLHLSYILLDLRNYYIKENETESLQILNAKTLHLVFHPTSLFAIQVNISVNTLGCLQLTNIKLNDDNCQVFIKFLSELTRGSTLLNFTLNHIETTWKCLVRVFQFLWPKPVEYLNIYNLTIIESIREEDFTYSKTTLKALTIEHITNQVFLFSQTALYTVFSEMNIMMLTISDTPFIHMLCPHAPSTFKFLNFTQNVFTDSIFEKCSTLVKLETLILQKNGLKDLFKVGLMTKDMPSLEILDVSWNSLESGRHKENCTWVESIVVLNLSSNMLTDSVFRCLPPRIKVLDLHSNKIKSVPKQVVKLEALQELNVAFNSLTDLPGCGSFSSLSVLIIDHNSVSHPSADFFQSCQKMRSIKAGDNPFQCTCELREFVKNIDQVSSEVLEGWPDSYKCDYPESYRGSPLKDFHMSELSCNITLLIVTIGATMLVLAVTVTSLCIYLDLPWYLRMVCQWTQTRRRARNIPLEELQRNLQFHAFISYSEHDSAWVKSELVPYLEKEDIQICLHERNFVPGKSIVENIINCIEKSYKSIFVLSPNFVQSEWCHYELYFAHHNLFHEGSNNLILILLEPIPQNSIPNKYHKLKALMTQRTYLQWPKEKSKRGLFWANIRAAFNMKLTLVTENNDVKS
Protocol: (§1) Results are shown in Table 6 and are expressed as fold induction of IFN-α1 —induced luciferase signal, again with respect to a vehicle control.
(§2) The assay identified TLR6-selective compounds (i.e., compounds that modulate TLR6-mediated activity, but not TLR7-mediated activity), TLR7-selective compounds (compounds that modulate TLR7-mediated activity, but not TLR6-mediated activity), and compounds that modulate cellular activity through both TLR6 and TLR7.
(§3) Unless otherwise indicated, all incubations were performed at 37° C. with 5% CO2 at 98% humidity.
(§4) Culture medium was prepared from complete RPMI 1640 medium (BioSource International, Inc., Camarillo, Calif.). Fetal bovine serum (Atlas Biologicals, Inc., Ft. Collins, Colo.) was added to a final concentration of 7.5% (vol/vol); L-glutamine (BioSource International, Inc.) was added to 5 mM; and sodium pyruvate (BioSource International, Inc.) was added to 1 mM.
Namalwa cells were grown by incubation in culture medium overnight. Cells were harvested by centrifugation in a tabletop centrifuge (1200 RPM for 5 minutes), and then resuspended in phosphate buffered sucrose to a concentration of 1.3×10^7 cells/mL.
For each transfection, a 750 μL aliquot of the cell suspension was placed in an electroporation cuvette with 4 mm gaps. 10 μg of the pIFN-α1-luc vector and 10 μg of the pCI-TLR6 vector were added to the electroporation cuvette. The cell and vector mixtures were incubated at room temperature for 5 minutes. The cells were electroporated using a BioRad Gene Pulser (BioRad Laboratories, Hercules, Calif.) set to at 500 μF capacitance and […], then incubated at room temperature for 5 minutes.
(§5) The electroporated cells were suspended in 10 mLs of culture medium and incubated overnight. Dead cells and debris were removed after 24 hours using a MACS Dead Cell Removal kit (Miltenyi Biotec, Auburn, Calif.). Cells were resuspended in 10 mL of culture medium and incubated for an additional 24 hours.
(§6) Transfected cells were selected by adding G418 (Promega Corp., Madison, Wis.) to a final concentration of 1 mg/mL and incubating the cells for seven days.
(§7) The selected transfected cells were counted and resuspended to a concentration of 1×10^6 cell per mL in culture medium. 100 μl aliquots of cells were placed in the wells of a white-walled, white-bottomed 96-well plate (Corning, Inc., Corning, N.Y.). 1.0 μL of an IRM compound from Table 1 (prepared at 1 mM in 100% DMSO) was added to some cell aliquots so that the final concentration of IRM compound was 10 μM. As a positive control, some cell aliquots were incubated with Sendai virus instead of IRM compound. As a negative control, some cell aliquots were incubated with DMSO without IRM compound. In all cases, the cells were incubated for 18 hours.
(§8) The plates were equilibrated to room temperature before one volume of reconstituted LucLight Plus (Packard Instruments, Meriden, Conn.) was added to each aliquot of cells. Each well of the plate was read on an LJL Analyst (LJL Biosystems, Inc., Sunnyvale, Calif.) set with a 5 minute dark adapt. Results are shown in Table 6 and are expressed as fold increase of the IFN-αl—induced luciferase signal compared to a DMSO control.

TLR7 = molecular target: T2, TLR7 (Homo sapiens, UniProt Q9NYK1); assay: IFN-α1-luciferase reporter assay in genetically modified Namalwa cells, TLR7; type: cell-based; parameters: expressed in transfected cells; host or cells: Namalwa (ATCC CRL-1432); settings: 10 μM IRM, 18 hours
T2 sequence (Q9NYK1 27-1049): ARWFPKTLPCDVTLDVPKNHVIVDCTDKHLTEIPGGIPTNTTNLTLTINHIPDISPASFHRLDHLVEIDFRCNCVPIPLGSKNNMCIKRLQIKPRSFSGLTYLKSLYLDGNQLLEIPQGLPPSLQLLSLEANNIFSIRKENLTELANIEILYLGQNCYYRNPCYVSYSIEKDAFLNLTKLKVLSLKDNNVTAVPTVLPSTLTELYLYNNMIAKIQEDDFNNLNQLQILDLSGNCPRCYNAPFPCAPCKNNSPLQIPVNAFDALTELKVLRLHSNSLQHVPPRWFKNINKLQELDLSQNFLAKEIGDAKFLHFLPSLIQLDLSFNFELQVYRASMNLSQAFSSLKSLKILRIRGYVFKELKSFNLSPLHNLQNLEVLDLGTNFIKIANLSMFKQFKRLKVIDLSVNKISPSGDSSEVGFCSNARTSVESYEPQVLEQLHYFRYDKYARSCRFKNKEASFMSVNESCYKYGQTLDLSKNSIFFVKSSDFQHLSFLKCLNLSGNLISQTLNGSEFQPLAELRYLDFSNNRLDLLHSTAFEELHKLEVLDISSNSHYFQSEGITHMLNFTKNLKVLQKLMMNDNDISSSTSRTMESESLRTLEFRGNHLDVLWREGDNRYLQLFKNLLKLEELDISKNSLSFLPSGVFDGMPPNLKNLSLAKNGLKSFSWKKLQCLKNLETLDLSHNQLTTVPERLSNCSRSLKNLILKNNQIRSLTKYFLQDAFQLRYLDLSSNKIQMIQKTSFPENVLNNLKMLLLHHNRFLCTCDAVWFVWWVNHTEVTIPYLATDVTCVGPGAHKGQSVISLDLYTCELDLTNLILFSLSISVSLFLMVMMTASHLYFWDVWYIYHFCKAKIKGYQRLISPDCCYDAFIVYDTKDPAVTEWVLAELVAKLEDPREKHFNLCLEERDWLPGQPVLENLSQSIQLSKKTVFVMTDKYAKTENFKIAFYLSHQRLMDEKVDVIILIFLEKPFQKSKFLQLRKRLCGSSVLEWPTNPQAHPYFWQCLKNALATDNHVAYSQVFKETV
Protocol: as §1, §2, §3, §4
Namalwa cells were grown by incubation in culture medium overnight. Cells were harvested by centrifugation in a tabletop centrifuge (1200 RPM for 5 minutes), and then resuspended in phosphate buffered sucrose to a concentration of 1.3×10^7 cells/mL. […]
as §5, §6, §7, §8

Structure (SMILES) | TLR6: fold increase of the IFN-α1-induced luciferase signal compared to a DMSO control (TLR6) [fold increase] | TLR7: fold increase of the IFN-α1-induced luciferase signal compared to a DMSO control (TLR7) [fold increase]
Cc1nc2c(N)nc3ccccc3c2n1CCOCC#Cc1ccccc1 [IRM47, 2-methyl-1-{2-[(3-phenylprop-2-ynyl)oxy]ethyl}-1H-imidazo[4,5-c]quinolin-4-amine] | 9.42 | 1.91
CCCCc1nc2c(N)nc3cccnc3c2n1CCNC(=O)c1ccc(Br)s1 [IRM42, N^2-[2-(4-amino-2-butyl-1H-imidazo[4,5-c][1,5]naphthyridin-1-yl)ethyl]-5-bromo-2-thiophenecarboxamide] | 0.98 | 3.54
CCOCc1nc2c(N)nc(C)c(C)c2n1CCNS(C)(=O)=O [IRM26, N-{2-[4-amino-2-(ethoxymethyl)-6,7-dimethyl-1H-imidazo[4,5-c]pyridin-1-yl]ethyl}methanesulfonamide] | 1.50 | 2.48
CCCCc1nc2c(N)nc3ccccc3c2s1 [IRM27, 2-butylthiazolo[4,5-c]quinolin-4-amine] | 6.28 | 1.32
Cc1nc(N)c2nc(C)n(CCCCCS(=O)(=O)c3ccccc3)c2c1C [IRM33, 1-(5-benzenesulfonyl-pentyl)-2,6,7-trimethyl-1H-imidazo[4,5-c]pyridin-4-ylamine] | 13.12 | 1.99
COCCc1nc2c(N)nc3ccccc3c2n1CCOCCNC(=O)c1ccc(C(=O)NCCOCCn2c(CCOC)nc3c(N)nc4ccccc4c32)cc1 [IRM51, N,N′-bis(2-{2-[4-amino-2-(2-methoxyethyl)-1H-imidazo[4,5-c]quinolin-1-yl]ethoxy}ethyl)terephthalamide] | 3.67 | 1.74
CCC(COCCCc1ccccc1)n1cnc2c(N)nc3ccccc3c21 (centres unmarked) [IRM45, 1-{1-[(3-phenylpropoxy)methyl]propyl}-1H-imidazo[4,5-c]quinolin-4-amine] | 5.56 | 1.87
Nc1nc2ccccc2c2c1ncn2CCCCNC(=O)c1cnc2ccccc2c1 [IRM28, N^3-[4-(4-amino-1H-imidazo[4,5-c]quinolin-1-yl)butyl]-3-quinolinecarboxamide] | 2.27 | 0.96
Nc1nc2ccccc2c2c1ncn2CCCCNC(=O)c1cccc2ccccc12 [IRM24, N^1-[4-(4-amino-1H-imidazo[4,5-c]quinolin-1-yl)butyl]-1-naphthamide] | 0.00 | 3.38
Nc1nc2ccccc2c2c1ncn2CCOCCCc1cccnc1 [IRM35, 1-{2-[3-(3-pyridyl)propoxy]ethyl}-1H-imidazo[4,5-c]quinolin-4-amine] | 6.72 | 2.33
CCc1nc2c(N)nc3ccc(OCc4ccccc4)cc3c2n1CCCCNC(=O)c1ccccc1 [IRM48, N-{4-[4-amino-8-(benzyloxy)-2-ethyl-1H-imidazo[4,5-c]quinolin-1-yl]butyl}benzamide] | 4.56 | 1.62
CCc1nc2c(N)nc3ccccc3c2n1CCCCSC(C)C [IRM50] | 8.80 | 1.91
CCCCc1nc2c(N)nc3ccc(OCC(=O)N4CCOCC4)cc3c2n1C [IRM44, 2-[(4-amino-2-butyl-1-methyl-1H-imidazo[4,5-c]quinolin-8-yl)oxy]-1-morpholin-1-ylethanone] | 6.10 | 1.60
